Measured values: US5736529A, “Use of NAD-related compounds in the treatment of neural trauma to inhibit neurodegeneration” (priority 1996, dated 1998)
Read-outs that look alike come from different tables or passages of the source.

Assays:
[1] = HPLC determination of tBuOOH in mice brains (pharmacokinetic profile); type: in vivo, mouse (male C57BL/6)
Description: Male C57BL/6 mice, 8 months old, were treated ICV with 110 mg/kg of tBuOOH. At various times, brains were removed, dissected and frozen on dry ice. Later the brains were homogenized in acetonitrile and centrifuged for 5 minutes at 12,000 g.

[2] = tested on: DNA in brain regions of C57BL/6 mice; test: Second experiment, tBuOOH induced DNA fragmentation (FIG. 2, FIG. 3); type: in vivo, mouse (male C57BL/6)
Description: A second experiment was conducted to measure the degree of DNA fragmentation. […] Male C57BL/6 mice, of ages 2, 8 or 24 months old, were treated with tBuOOH ICV. Mice in the 20 minute group were treated with 110 mg/kg of tBuOOH and maintained for 20 minutes until brains were removed and analyzed for DNA fragmentation. This dose of tBuOOH induces cellular necrosis in a number of brain regions. Mice in the 48 hour group were given 22 mg/kg of tBuOOH and maintained for 48 hours. This dose of tBuOOH induces apoptosis and a small amount of necrosis in a number of brain regions.

[3] = tested on: NADPH; test: Pyridine dinucleotide quantitation, NADPH in brain regions; type: in vivo, mouse (male C57BL/6); details: 110 mg/kg ICV, 8 month old mice
Description: NADPH and NADH are stable in base. Fortunately, the cyanide reaction proceeds optimally in base.

[4] = tested on: DNA in brain regions of C57BL/6 mice; details: for DNA fragmentation, low dose: 21.9 mg/kg
Description: 24 month old C57BL/6 mice were divided into 3 groups of 3 mice each. One group was the control. A second group of mice was treated ICV with 109.7 mg/kg t-BuOOH and then sacrificed 20 minutes later. A third group of mice were treated ICV with 21.9 mg/kg t-BuOOH and then sacrificed 48 hours later. […] The brains were removed from the treated mice and were sectioned into the following six regions: cortex, striatum, hippocampus, thalamus, midbrain and cerebellum. DNA damage has been expressed as a ratio of the damaged DNA to the total DNA per gram of tissue.
DNA fragmentation was assessed in […] samples of tissue from a brain region. A volume of 0.2 ml of ice cold lysing buffer (10 mM Tris-HCl, pH 7.5, 1 mM EDTA, and 0.2% Triton X-100) was added to each section, which was then centrifuged at 12,000 g for 25 minutes to separate the intact from the fragmented DNA. The supernatant (containing the fragmented DNA) was transferred to a separate tube. 0.2 ml of the lysing buffer was added to the pellet with sonication for 10 seconds. The amount of DNA in the supernatant and pellet fractions was determined by a fluorimetric method, using the dye Hoechst 33258. DNA damage is presented as the ratio of DNA in the supernatant to the total DNA in the pellet and supernatant per gram of tissue^17.
8 month old mice were divided into 4 groups (n=5 each). Group 1 was the control. Mice in group 2 were treated with 109.7 mg/kg t-BuOOH and then sacrificed 20 minutes later. […] The same procedures were performed as with the 24 month old mice.

[5] = tested on: DNA in brain of mice; type: in vivo, mouse (8 month old C47BL/6); details: 21.9 mg/kg t-BuOOH ICV; 48 hours; 8 month old mice
Description: A gel electrophoresis was performed to investigate whether the DNA fragmentation that is observed at the end of 48 hours is due to apoptosis or not (FIG. 7). 8 month old C47BL/6 mice were treated with ICV with 21.9 mg/kg t-BuOOH 48 hours prior to removal of the brains. Brains were added to lysing buffer and centrifuged. The supernatants were collected as in the DNA fragmentation assay. The samples were extracted with an equal volume of phenol/chloroform/isoamyl alcohol (25:24:1). The DNA in the aqueous phase was precipitated by adding an equal volume of 100% ethanol and maintained at -20° C. overnight. DNA was collected by centrifugation at 12,000 g for 25 minutes, air dried and resuspended in TBE buffer (90 mM Tris, 90 mM boric acid and 2 mM EDTA, pH 8.0). Horizontal electrophoresis was performed for 2 hours at 100 volts in a 0.75% agarose gel with TBE buffer. The gel was stained with ethidium bromide and photographed by UV transillumination.

[6] = tested on: C57BL/6 mice; test: Behavior and survival of mice after ICV tBuOOH; type: in vivo, mouse (male C57BL/6)
Description: In general male C57BL/6 mice (2, 8 or 24 months old) were anesthetized with ketamine and xylazine (200 and 2 mg/kg, ip). They were injected ICV with tBuOOH in doses of approximately 22 or 110 mg/kg. This amounts to 1 or 5 μl of a 70% solution of tBuOOH injected slowly into a lateral cerebral ventricle. A mouse brain weighs about 400 mg. […] Animals recovered from anesthesia about 30 minutes or so after tBuOOH administration. […] Low dose mice survived for 48 hours or more.

[7] = tested on: DNA; test: EPR detection of radicals on mixing DNA and tBuOOH in the presence of DMPO
Description: Therefore, DNA fragmentation is produced following HO. and other radicals induced DNA damage. Necrotic degeneration probably occurs within the first few hours after tBuOOH administration.

[8] = tested on: apoptotic cells in brain; details: 21.9 mg/kg ICV; 48 hours; most abundant in thalamus and pons
Description: The purpose of the apoptosis staining was to identify individual cells that may have undergone apoptosis. Residues of digoxigenin nucleotide were added to the DNA by an enzyme terminal deoxynucleotidyl transferase (TdT) which catalyzes the addition of deoxyribonucleotide triphosphate to the 3'-OH end of single and double stranded DNA. Thus the targets for labeling are the numerous new 3'-OH DNA ends generated by DNA fragmentation, easily observable in morphologically identifiable nuclei and apoptotic bodies. The sections were then incubated with an antibody to digoxigenin residues. The antibody was coupled to peroxidase allowing visualization with 3,3'-diaminobenzidine. Other sections were stained with cresyl violet.
A dose of 21.9 mg/kg of tBuOOH was administered ICV to C57BL/6 mice. The mice were anesthetized 48 hours after the tBuOOH administration and perfused through the left cardiac ventricle with 0.175M sodium phosphate and 0.155M sodium chloride (pH 7.5, PBS), then with 4% formaldehyde and 0.2% glutaraldehyde in PBS for six minutes with each solution at room temperature. The brains were then removed from the cranium after 2 hours of fixation and sliced coronally into 50μ sections with a vibrating microtome.
In order to detect individual cells undergoing apoptosis, the In Situ Apoptosis Detection Kit, (Oncor, Gaithersburg, Md.) was used. […]

[9] = tested on: 24 month old mice; details: 24 month old mice; 21.9 mg/kg t-BuOOH only
[10] = tested on: catalase; details: cited from earlier work
[11] = tested on: glutathione peroxidase; details: cited from earlier work
[12] = 8 month old mice, 109.7 mg/kg t-BuOOH, 20 min
[13] = 8 month old mice, 109.7 mg/kg t-BuOOH, 20 min, * p<0.05 vs control
[14] = 24 month old mice, 21.9 mg/kg t-BuOOH ICV, 48 hours, * p<0.05 vs control
[15] = 24 month old mice, 109.7 mg/kg t-BuOOH ICV, 20 min, * p<0.05 vs control

CC(C)(C)OO [tBuOOH, t-butylhydroperoxide]
toxin concentration relative to the initial concentration within 5 minutes ([1]; 110 mg/kg ICV, 8 month old mice): less than 50% | tBuOOH concentration curve in 2 month old mice ([1]; compared with 8 month old mice): virtually identical curve | concentration at 10 min ([1]; mouse, brain, icv or intrathecal, 110 mg/kg ICV, 8 month old mice): ~1000 µM | half-life ([1]; mouse, icv or intrathecal, 110 mg/kg ICV, depending on the brain region): 4 to 20 min | clearance of tBuOOH from the brain ([1]; striatum of 8 month old mice, 110 mg/kg ICV): very rapid clearance of tBuOOH from the brain in the initial period, followed by a slower clearance | DNA fragmentation in the cerebellum ([2]; 2, 8 and 24 month old mice, 48 hours): increased significantly | DNA fragmentation in the cortex ([2]; 2 and 8 month old mice): no increase in DNA fragmentation in the cortex | DNA fragmentation in the striatum, midbrain and hippocampus ([2]; 2 month old mice): increased DNA fragmentation | tBuOOH induced necrosis in the thalamus at 20 minutes ([2]; 8 and 24 month old vs 2 month old mice): 8 and 24 month old mice are more sensitive than 2 month old mice | DNA fragmentation in the cortex ([2]; 24 month old mice, also found in the hippocampus): robust increase in DNA fragmentation in the cortex | apoptosis induced DNA fragmentation in the thalamus ([2]; 48 hours after tBuOOH): found only in 24 month old mice | time of appearance of DNA fragments in the brain ([2]; after tBuOOH administration): ≤ 2 min | time for NADPH to return to control values [3]: ≤ 5 min | NADPH oxidation ([3]; every brain region): oxidized rapidly | DNA fragmentation, low dose ([4]; 8 month old mice): significantly higher DNA fragmentation values were seen only in the cerebellum | DNA fragmentation, low dose ([4]; 24 month old mice): significant increases in DNA fragmentation were observed in almost all brain regions (except the striatum) | DNA fragmentation in the cortex or hippocampus ([4]; 109.7 mg/kg, 8 month old mice): no significant increase in DNA fragmentation | DNA fragmentation in many brain regions ([4]; 109.7 mg/kg, 24 and 8 month old mice): Significant DNA fragmentation | DNA fragmentation, cortex [4, 12]: 0.83 ± 0.14 per gram of tissue | DNA fragmentation, hippo [4, 12]: 0.768 ± 0.16 per gram of tissue | DNA fragmentation, cerebellum [4, 13]: 1.16 ± 0.15 per gram of tissue | DNA fragmentation, midbrain [4, 13]: 2.37 ± 0.43 per gram of tissue | DNA fragmentation, striatum [4, 13]: 2.33 ± 0.46 per gram of tissue | DNA fragmentation, thala [4, 13]: 2.65 ± 0.88 per gram of tissue | DNA fragmentation in the cerebellums (FIG. 5) ([4]; 8 month old mice, p<0.05): Statistically significantly different from control values and tBuOOH with nicotinamide | DNA fragmentation, striatum ([4]; 24 month old mice, 21.9 mg/kg t-BuOOH ICV, 48 hours): 1.94 ± 0.31 per gram of tissue | DNA fragmentation, cerebellum [4, 14]: 1.71 ± 0.45 per gram of tissue | DNA fragmentation, cortex [4, 14]: 1.55 ± 0.19 per gram of tissue | DNA fragmentation, hippo [4, 14]: 1.43 ± 0.23 per gram of tissue | DNA fragmentation, midbrain [4, 14]: 2.04 ± 0.53 per gram of tissue | DNA fragmentation, thala [4, 14]: 2.13 ± 0.31 per gram of tissue | DNA fragmentation, cerebellum [4, 15]: 1.84 ± 0.45 per gram of tissue | DNA fragmentation, cortex [4, 15]: 1.73 ± 0.23 per gram of tissue | DNA fragmentation, hippo [4, 15]: 1.44 ± 0.20 per gram of tissue | DNA fragmentation, midbrain [4, 15]: 2.77 ± 0.65 per gram of tissue | DNA fragmentation, striatum [4, 15]: 2.46 ± 0.33 per gram of tissue | DNA fragmentation, thala [4, 15]: 2.52 ± 0.43 per gram of tissue | DNA fragments on gel electrophoresis [5]: Oligosomal sized DNA fragments were observed along with a smear of fragmentation | behavior of low dose animals ([6]; about 22 mg/kg ICV): move about freely and resemble mice treated ICV with 0.9% saline | appearance of high dose mice and death ([6]; about 110 mg/kg ICV): frequently appeared inactive until death | time of death after treatment ([6]; high dose (about 110 mg/kg ICV)): about 2 hours | survival ([6]; low dose (about 22 mg/kg ICV)): ≥ 48 h | radicals produced by mixing DNA and tBuOOH [7]: produces HO. and other radicals | apoptotic cells in the brain [8]: Apoptotic cells were found in many brain regions, but were most abundant in the thalamus and pons | deaths [9]: Three out of six | substrate for catalase [10]: not a substrate for catalase | detoxification by glutathione peroxidase [11]: detoxified by glutathione peroxidase
